Data as given in ChEMBL document CHEMBL5518159, “Thiazole-based analogues as potential antibacterial agents against methicillin-resistant Staphylococcus aureus (MRSA) and their SAR elucidation” (Eur J Med Chem, 2023).
Converted amounts (≈) assume the structure as drawn.

Tests used:
Format in all cases: functional
[1] = tested on: Staphylococcus aureus; test: Antimicrobial activity against Methicillin-resistant Staphylococcus aureus ATCC 43300 assessed as bacterial growth inhibition incubated for 18 hrs by broth micro-dilution method
[2] = tested on: Staphylococcus aureus; test: Antibacterial activity against Methicillin-sensitive Staphylococcus aureus ATCC 25923 assessed as reduction in bacterial growth incubated for 24 hrs by CLSI based broth microdilution method
[3] = tested on: Staphylococcus aureus; test: Antibacterial activity against Methicillin-sensitive Staphylococcus aureus ATCC 25923 assessed as reduction in microbial growth by CLSI based broth microdilution method
[4] = tested on: Staphylococcus aureus; test: Antibacterial activity against Methicillin-resistant Staphylococcus aureus ATCC 43300 assessed as reduction in bacterial growth measured for 24 hrs by CLSI based broth microdilution method
[5] = tested on: Staphylococcus aureus; test: Antibacterial activity against methicillin-resistant Staphylococcus aureus ATCC 43300 assessed as reduction in bacterial growth by CLSI protocol based broth microdilution method
[6] = tested on: Staphylococcus aureus; test: Antibacterial activity against methicillin-resistant Staphylococcus aureus ATCC 43300 assessed as bacterial growth inhibition incubated for 24 hrs by broth dilution method
[7] = tested on: Staphylococcus aureus; test: Antibacterial activity against methicillin-resistant Staphylococcus aureus ATCC 33592 assessed as reduction in microbial growth incubated for 16 to 20 hrs by CLSI based two-fold serial dilution method; conditions: time 16-20 hrs
[8] = tested on: Staphylococcus aureus; test: Antibacterial activity against Methicillin-resistant Staphylococcus aureus assessed as reduction of microbial growth by Muller Hinton broth based dilution assay
[9] = tested on: Staphylococcus aureus; test: Antibacterial activity against methicillin-resistant Staphylococcus aureus assessed as reduction in microbial growth by CLSI based broth microdilution method
[10] = tested on: Staphylococcus aureus; test: Antibacterial activity against clinical isolate Methicillin resistant Staphylococcus aureus 2658 RCMB assessed as reduction in microbial growth incubated for 16 to 24 hrs by CLSI-based Muller Hinton broth based microdilution method; conditions: time 16-24 hrs
[11] = tested on: Staphylococcus aureus; test: Antibacterial activity against Methicillin-resistant Staphylococcus aureus AUMC 261 assessed as bacterial growth inhibition incubated for 24 hrs by broth microdilution analysis
[12] = tested on: Escherichia coli; test: Antibacterial activity against Escherichia coli ATCC 25922 assessed as reduction in bacterial growth incubated for 18 to 24 hrs by broth microdilution method; conditions: time 18-24 hrs
[13] = tested on: Staphylococcus aureus; test: Antibacterial activity against Methicillin-resistant Staphylococcus aureus […] assessed as reduction in microbial growth incubated for 18 to 24 hrs by broth micro-dilution method; conditions: time 18-24 hrs
[14] = tested on: Escherichia coli; test: Antibiofilm activity against Escherichia coli ATCC 25922 assessed as reduction in biofilm formation at 50 uM incubated for 24 hrs by crystal violet staining based analysis relative to control; set-up: scale not given: the % may be the effect or the level left
[15] = tested on: Staphylococcus aureus; test: Antibacterial activity against methicillin-resistant Staphylococcus aureus assessed as inhibition of bacterial growth measured after 24 hrs by broth micro-dilution method
[16] = tested on: Staphylococcus aureus; test: Antibacterial activity against vancomycin-resistant Staphylococcus aureus assessed as bacterial growth inhibition incubated for 18 to 24 hrs by CLSI-based microdilution method; conditions: time 18-24 hrs
[17] = tested on: Staphylococcus aureus; test: Antibacterial activity against […] Staphylococcus aureus ATCC 29213 assessed as reduction in bacterial growth incubated for 16 to 20 hrs by CLSI based two-fold serial dilution method; conditions: time 16-20 hrs
[18] = tested on: Escherichia coli; test: Antibacterial activity against Escherichia coli ATCC 35210 assessed as reduction in microbial growth

| SMILES | MIC [5] | MBC [6] | further results |
| --- | --- | --- | --- |
| N#C/C(C(=O)NCc1ccco1)=C1/SC(Cc2ccc(Cl)cc2)C(=O)N1c1ccccc1 (stereo not given) | – | – | MIC [1]: 4 µg/mL (≈ 8.62 µM) |
| CC(=O)c1sc(-c2cccnc2)nc1C | – | – | MIC50 [2]: 2 µg/mL (≈ 9.16 µM); MIC90 [3]: 4 µg/mL; MIC50 [4]: 4 µg/mL (≈ 18.3 µM) |
| O=C1CSC(c2ccc([N+](=O)[O-])cc2)N1c1nc2ccc(OC(F)(F)F)cc2s1 (stereo not given) | 250 µg/mL (≈ 566 µM) | 120 µg/mL (≈ 272 µM) | – |
| O=C1CSC(c2cccc(Cl)c2Cl)N1c1nc2ccc(OC(F)(F)F)cc2s1 (stereo not given) | 250 µg/mL (≈ 537 µM) | 120 µg/mL (≈ 258 µM) | – |
| O=C1CSC(c2c(F)cccc2F)N1c1nc2ccc(OC(F)(F)F)cc2s1 (stereo not given) | 250 µg/mL (≈ 578 µM) | 120 µg/mL (≈ 278 µM) | – |
| O=C1CSC(c2ccc(O)cc2)N1c1nc2ccc(OC(F)(F)F)cc2s1 (stereo not given) | 250 µg/mL (≈ 606 µM) | 120 µg/mL (≈ 291 µM) | – |
| O=C1CSC(c2ccc(Cl)cc2Cl)N1c1nc2ccc(OC(F)(F)F)cc2s1 (stereo not given) | 250 µg/mL (≈ 537 µM) | 120 µg/mL (≈ 258 µM) | – |
| CCn1cc(-c2csc(N)n2)c(=O)c2cc(F)c(N3CCN(Cc4ccc(Cl)cc4)CC3)cc21 | – | – | MIC [7]: 8 µg/mL |
| CCn1cc(-c2csc(N)n2)c(=O)c2cc(F)c(N3CCN(Cc4ccc(Cl)cc4Cl)CC3)cc21 | – | – | MIC [7]: 8 µg/mL |
| O=C1CSC(c2c(Cl)cccc2Cl)N1c1nc2ccc(OC(F)(F)F)cc2s1 (stereo not given) | 250 µg/mL (≈ 537 µM) | 120 µg/mL (≈ 258 µM) | – |
| O=C1CSC(c2ccc(F)cc2)N1c1nc2ccc(OC(F)(F)F)cc2s1 (stereo not given) | 250 µg/mL (≈ 603 µM) | 120 µg/mL (≈ 290 µM) | – |
| CCn1cc(-c2csc(N)n2)c(=O)c2cc(F)c(N3CCN(Cc4ccc(Cl)c(Cl)c4)CC3)cc21 | – | – | MIC [7]: 8 µg/mL |
| O=C1CSC(c2ccc(Cl)cc2)N1c1nc2ccc(OC(F)(F)F)cc2s1 (stereo not given) | 250 µg/mL (≈ 580 µM) | 120 µg/mL (≈ 279 µM) | – |
| O=C1CSC(c2c(F)cccc2Cl)N1c1nc2ccc(OC(F)(F)F)cc2s1 (stereo not given) | 250 µg/mL (≈ 557 µM) | 120 µg/mL (≈ 267 µM) | – |
| COc1ccc(/C=C(\Oc2ccc3c(CN(CCO)CCO)cc(=O)oc3c2)C(=O)c2nccs2)cc1 | – | – | MIC [8]: 2 µg/mL |
| O=C(/C(=C/c1ccccc1Cl)n1cnc2cc(Cl)ccc2c1=O)c1nccs1 | – | – | MIC [9]: 2 µg/mL |
| Cc1nc(-c2ccc3ccccc3c2)sc1-c1nnc(NC(=N)N)o1 | – | – | MIC [10]: 1.9 µg/mL |
| O=C(O)c1cn(C2CC2)c2cc(N3CCN(C(=O)CN4C(=O)S/C(=C\c5ccccc5)C4=O)CC3)c(F)cc2c1=O | – | – | MIC [11]: 2.88 µg/mL (≈ 4.99 µM) |
| CCOC1=NC(=N/N=C2\C(=O)Nc3ccc(Br)cc32)/S/C1=N/Nc1ccc([N+](=O)[O-])cc1 | – | – | MIC [12]: 8 µg/mL (≈ 15.5 µM); MIC [13]: 8 µg/mL; Activity [14]: 90% |
| Cc1cnc(/C=c2\[nH]c(=O)/c(=C\c3ccc(Br)cc3)s2)s1 | – | – | MIC [15]: 40 µg/mL (≈ 105 µM) |
| O=C(O)CCN(c1ccc(Nc2ccccc2)cc1)c1nc(-c2ccc(Cl)cc2)cs1 | – | – | MIC [16]: 1 µg/mL (≈ 2.22 µM) |
| Cc1ccc(C2SCC(=O)N2c2nc3ccc(OC(F)(F)F)cc3s2)cc1 (stereo not given) | 250 µg/mL (≈ 609 µM) | 120 µg/mL (≈ 292 µM) | – |
| Cc1cnc(/C=c2\[nH]c(=O)/c(=C\c3cccc(Br)c3)s2)s1 | – | – | MIC [15]: 40 µg/mL (≈ 105 µM) |
| O=C(O)c1cn(C2CC2)c2cc(N3CCN(C(=O)CN4C(=O)S/C(=C\c5ccoc5)C4=O)CC3)c(F)cc2c1=O | – | – | MIC [11]: 2.88 µg/mL (≈ 5.08 µM) |
| CCCCCCNc1ccc(S(=O)(=O)CC(=O)c2nccs2)cc1 | – | – | MIC [17]: 1 µg/mL (≈ 2.73 µM) |
| CCc1nc(N2CCN(CC(=O)Nc3nccs3)CC2)c(C#N)c2c1COC(C)(C)C2 | – | – | MIC [18]: 230 µg/mL |
